The values that follow come from US20230277654A1, “STABLE FORMULATIONS OF CYTOMEGALOVIRUS” (priority 2017, published 2023).

Assay [1] deals with FKBP. Particulars: Clackson et al., 1998; cited from earlier work.
Assay [2] relates to rdCMV. Nature of the assay: Shield-1 dependence of rdCMV replication. The assay is classed as cell-based, cytomegalovirus. The following applies: rdCMV in ARPE-19 cells and other human primary cells. The source says: Conversely, rdCMV should not replicate substantially in the absence of Shield-1. The quality of a replication defective mechanism is judged by how stringent the control is under the conditions not permissive for viral replication, i.e., the infectious titers of progeny virions under these conditions. The rdCMV described herein cannot replicate substantially (either in cell culture or within a patient) without Shield-1 present. Its replication in ARPE-19 cells and other types of human primary cells is conditional, and a molar concentration of Shield-1 greater than 0.1 μM, preferable at least 2 μM, in the culture medium is required to sustain viral replication.

`CC[C@H](C(=O)N1CCCC[C@H]1C(=O)O[C@H](CCc1ccc(OC)c(OC)c1)c1cccc(OCCN2CCOCC2)c1)c1cc(OC)c(OC)c(OC)c1` [Shield-1]: the “binding to the F36V derivative compared to wild-type FKBP (tighter)” value in assay [1] is reported as “about 1,000 fold”. Besides, the “molar concentration in the culture medium required to sustain viral replication” value in assay [2] was “greater than 0.1 μM”.
